Measured values taken from patent US20080113929A1, “Abasic Oligonucleotide as Carrier Platform for Antigen and Immunostimulatory Agonist and Antagonist” (Coley Pharmaceutical GmbH, priority 2004, published 2008).

Experiments:
murine TLR9 = molecular target: T1, murine TLR9 (Mus musculus, UniProt Q9EQU3); test: TLR9 signaling induction, NFκB-luciferase reporter in HEK 293 cells stably transfected with murine TLR9; format: cell-based; conditions: 16 h, HEK 293 murine TLR9 NFκB-luciferase
T1 construct: expressed in transfected cells; host or cells: HEK 293 cells, stably transfected, also carrying a six-fold NFκB-luciferase reporter plasmid
T1 sequence (Q9EQU3 26-1032): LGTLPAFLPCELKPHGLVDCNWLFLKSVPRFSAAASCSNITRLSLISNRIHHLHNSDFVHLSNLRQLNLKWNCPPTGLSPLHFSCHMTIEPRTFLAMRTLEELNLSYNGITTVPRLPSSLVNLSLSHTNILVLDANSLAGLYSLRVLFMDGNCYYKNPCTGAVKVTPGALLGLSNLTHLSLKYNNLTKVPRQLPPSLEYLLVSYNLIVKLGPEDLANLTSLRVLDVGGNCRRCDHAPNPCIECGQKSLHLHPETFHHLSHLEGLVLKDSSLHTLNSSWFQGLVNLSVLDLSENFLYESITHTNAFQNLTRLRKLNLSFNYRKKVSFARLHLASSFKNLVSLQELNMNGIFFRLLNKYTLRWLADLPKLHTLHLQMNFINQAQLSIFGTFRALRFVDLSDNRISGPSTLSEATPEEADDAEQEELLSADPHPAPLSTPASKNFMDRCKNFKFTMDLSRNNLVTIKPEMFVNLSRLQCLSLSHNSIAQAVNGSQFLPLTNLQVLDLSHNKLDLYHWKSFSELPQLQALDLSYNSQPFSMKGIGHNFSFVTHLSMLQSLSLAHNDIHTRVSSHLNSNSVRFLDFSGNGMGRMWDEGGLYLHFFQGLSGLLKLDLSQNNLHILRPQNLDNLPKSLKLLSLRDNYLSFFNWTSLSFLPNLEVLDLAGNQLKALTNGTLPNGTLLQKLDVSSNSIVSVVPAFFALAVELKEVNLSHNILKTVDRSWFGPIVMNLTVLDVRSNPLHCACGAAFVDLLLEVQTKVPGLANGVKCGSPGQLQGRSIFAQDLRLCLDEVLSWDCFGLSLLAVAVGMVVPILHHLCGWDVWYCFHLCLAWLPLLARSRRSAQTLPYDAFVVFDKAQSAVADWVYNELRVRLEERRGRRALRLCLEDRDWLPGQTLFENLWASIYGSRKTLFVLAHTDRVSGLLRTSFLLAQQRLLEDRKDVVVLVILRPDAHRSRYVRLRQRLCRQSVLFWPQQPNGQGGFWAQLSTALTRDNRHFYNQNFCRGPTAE
Procedure: FIG. 2 is a graph depicting fold induction of TLR9 signaling in vitro, as measured using 293 cells stably transformed with murine TLR9 and a NF-κB-luciferase reporter construct, following 16 hour incubation with indicated concentrations of hexamer CpG motif GACGTT alone (20321), CpG motif GACGTT in the context of a 20-mer CpG-ODN(ODN 5890; SEQ ID NO:5), or CpG motif GACGTT in the context of flanking abasic sequences in 20-mer 20307 (poly-D) or in 20-mer 20566 (poly-C3 spacer). EC50 values are shown in the graph legend.
Following published methods, HEK 293 cells were stably transfected with a murine TLR9 expression vector and a six-fold NFκB-luciferase reporter plasmid. Cells were plated on 96-well plates at 1.5×10^4 cells/well and allowed to attach overnight. The cells were then treated for sixteen hours with individual test compounds listed below at concentrations ranging between 10^−9 M and 10^−5 M.
Test agents were as follows: ODN 20321 (GACGTT); ODN 5890 (SEQ ID NO:5); 20307 ([…], where each D represents an abasic deoxyribonucleotide unit); and 20566 (JJJJJGACGTTJJJJJJJJJ, where each J represents a C3 spacer derived from propane-1,3-diol).
Each data point was done in duplicate. After 16 h stimulation the supernatant was removed and the cells were treated with lysis buffer and stored at −80° C. until luciferase measurement. Values are given as fold NFκB activation compared with non-stimulated cells.

[1] = system: RAW 264.7 murine macrophage cell line; test: In vitro uptake of Cy3-labeled oligomers by RAW 264.7 cells (FACS mean fluorescence); format: cell-based; conditions: Cy3-labeled 20-mer, 0.5 to 5.0 μM, 1 hr at 37° C.
Procedure: FIG. 1 is a bar graph depicting uptake by RAW 264.7 cells of Cy3-labeled 20-mer abasic oligonucleotides (poly-D or poly-C3) and of 20-mer ODN 5890 (SEQ ID NO:5). No data is shown for poly-C3 at 4.0 or 5.0 μM.
The 20-mer ODN 5890 ([…]; SEQ ID NO:5), a 20-mer poly-abasic (i.e., poly-D) or a 20-mer poly-C3 were synthesized with a fluorescence tag Cy3. The murine macrophage cell line, RAW 264.7 (American Type Culture Collection, Manassas, Va.), was incubated with various concentrations of test oligomer (0.5 to 5.0 μM) for 1 hr at 37° C. The cells were then washed and FACS analyzed for oligomer uptake by monitoring mean fluorescence. […] No data is shown for poly-C3 at concentrations of 4.0 or 5.0 μM.

With JJJJJGACGTTJJJJJJJJJ [compound 20566] as the sequence, how does the “TLR9 signaling compared with hexamer CpG motif alone (20321), in words” value (murine TLR9) read?
Its value is “induced significantly more TLR9 signaling”.

For DDDDDGACGTTDDDDDDDDD [compound 20307], which “TLR9 signaling compared with hexamer CpG motif alone (20321), in words” value (murine TLR9) is on record?
The value was “induced significantly more TLR9 signaling”.

With “TCCATGACGTTTTTGATGTT (Cy3 fluorescent tag attached, position not given here) [ODN 5890, Cy3-tagged in the uptake test]” as the sequence, how does the “oligomer uptake (comparison in words)” value [1] read?
The value was “up taken to a greater extent than either abasic oligonucleotide”.

And the “TLR9 signaling compared with hexamer CpG motif alone (20321), in words” value (murine TLR9)?
The value was “induced significantly more TLR9 signaling”.
